The Solubility is the concentration that dissolves in the medium under given conditions.

Common to all, as to format: physicochemical
Data set [1] is described as follows: Intrinsic aqueous solubility. The conditions noted are these: desirable physiological pH range. From the text: Therefore, it was necessary to formulate the compound in such a way to get the desired solubility at a physiological pH and maintain stability prior to administration.
The nature of data set [2]: Effect of pH on stability, 16.7% v/v ethanol:0.1M citrate buffers. The settings on record: 0.2 mg drug/mL, 2 days at 85° C. Here is the method:
(§1) The effect of pH on the drug substance stability was also studied. The buffer pH providing maximum stability was determined by comparing the stability of prototype formulations of the drug substance. […] Relative area percents of drug peaks were evaluated following 2 days storage at 85° C. […] Subsequent experiments evaluated stability (1 mg drug/mL) in 75% v/v ethanol:0.01M tartrate buffer. Three mL aliquots of samples were dispensed into 5 cc Type I glass vials and closed with West 4405/50 20 mm stoppers. Percent drug substance remaining, impurities and degradants were evaluated following 18 days storage at 50° C. and compared to initial values.

Data set [3] in a line: Effect of pH on stability, 75% v/v ethanol:0.01M tartrate buffer. The conditions noted are these: 18 days at 50° C. Here is the method: as §1
A short description of data set [4]: Solubility in solutions of dehydrated alcohol and POE castor oil. The settings on record: Dehydrated Alcohol 7.50% v/v, POE Castor Oil 4% v/v. Here is the method: However, this solution cannot be injected directly into patients as the non-aqueous components exceed 20%, thus potentially causing irritation at the injection site. […] It has been shown that the precipitation can be avoided by inclusion of a co-solvent such as polyoxyethylated (POE) castor oil in the formulation. Subsequently, solubility of the drug substance was determined in solutions containing various amounts of dehydrated alcohol and POE castor oil. Approximately 20 mg of drug was added to 3 mL aliquots of the solutions shown below in Table III. Samples were stirred for 16 hours, filtered trough 0.45 micron nylon syringe filters and analyzed by HPLC for drug concentration.

Data set [5] can be described thus: Dilution of 15 mg/mL ethanol/tartrate solution with aqueous diluents. The conditions noted are these: 15 mg/mL in 75% ethanol/10 mM tartrate buffer diluted with 0.9% sodium chloride injection or 5% dextrose injection.
Data set [6] is described as follows: Stability in solution containing ethanol and POE castor oil at 50° C. From the text:
However, as shown below in Table IV, drug degradation occurs in a solution containing ethanol and POE castor oil due to peroxide impurities present in POE castor oil. […] As shown below, the stability of the solution containing POE castor oil was much lower than the injection solution without the co-solvent.

Data set [7] is described as follows: Stability of antioxidant formulation at 25° C. for 4 months. The settings on record: for Appearance / Potency / pH: formulation with 0.1% each of three antioxidants. Here is the method: A formulation containing 1.5 mg/mL of Compound 1a, 0.075 mL/mL of ethanol, 0.04 mL/mL of POE castor oil in a tartrate buffer and containing 0.1% each of sodium formaldehyde sulfoxylate, L-cysteine HCl and ascorbic acid was prepared. Samples were placed on stability at 25° C. for 4 months. […] Additionally, there were no changes in potency or total oxidative degradants for the samples.

[8] abbreviates: during 4 months of storage at 25° C.

Structures are written as SMILES. Converted amounts (≈) assume the structure as drawn.

For the molecule `CSCO[C@H]1C[C@H]2OC[C@@]2(OC(C)=O)[C@H]2[C@H](OC(=O)c3ccccc3)[C@]3(O)C[C@H](OC(=O)[C@H](O)[C@@H](NC(=O)c4ccccc4)c4ccccc4)C(C)=C([C@@H](OC(C)=O)C(=O)[C@]12C)C3(C)C` [Compound Ia, 7-O-methylthiomethylpaclitaxel], the ionization result in data set [1] is listed as “does not ionize”. Also, the “buffer pH of best stability” value in data set [2] is given as 4.5. Moreover, in data set [3], the “apparent pH of most stable solution” value amounted to 5.4 and the “tartrate buffer pH of most stable solution” value was found to be 3.8. This molecule displayed a Solubility in data set [4] of 2380 µg/mL (≈ 2600 µM). Moreover, the “effect of aqueous dilution” value in data set [5] is “drug precipitation”. Besides, the “Total Impurities” value in data set [6] (6 days @ 50° C.) is recorded as 10.9 area %. Also, the “Total Impurities” value in data set [6] (16 days @ 50° C.) was 16.5 area %. For the same molecule, in data set [6] (Initial), the “Total Impurities” value amounted to 2.1 area %. In addition, in data set [7] (setting [8]), the “changes in appearance or pH” value is “no significant changes” and the “changes in potency or total oxidative degradants” value is on record as “no changes”. Further, in data set [7] (2 Month at 25° C.), the Appearance result is listed as “Clear, colorless”; the Potency is 1460 µg/mL (≈ 1600 µM); the pH is recorded as 3.56. Moreover, in data set [7] (4 Month at 25° C.), the Appearance entry is “Clear, colorless”; the Potency amounted to 1480 µg/mL (≈ 1620 µM); the pH was found to be 3.57. In data set [7] (Initial), the Appearance result is given as “Clear, colorless”; the Potency is 1440 µg/mL (≈ 1580 µM); the pH is on record as 3.71.

For the origin of these results see US20050054716A1, “Pharmaceutical compositions and methods of using taxane derivatives” (priority 2002, published 2005).
